Data on four compounds can be found in paper PMC8470483, “Bidirectional Influences of Cranberry on the Pharmacokinetics and Pharmacodynamics of Warfarin with Mechanism Elucidation” (Nutrients, 2021).

Where two headings read alike, the source gives them in different places. Marks after values point to notes of the source that are not given here.

Series [1] can be described thus: Measurement of INR in rats (anticoagulation effect of warfarin). The series is classed as in vivo. The conditions noted are these: for INR value at 24 h: mean ± S.E. The method, then: In the pharmacodynamic study, the rats were randomly divided into four groups (n = 8 in each group). In the first experiment, two groups of rats were orally administered (±) warfarin (0.2 mg/kg) alone and with CJ (5 g/kg) given at 0.5 h prior to (±) warfarin dosing, and blood samples were drawn at 6, 10 and 24 h after (±) warfarin dosing. In the second experiment, two groups of rats were orally administered (±) warfarin (0.2 mg/kg) with and without CJ (5 g/kg), given at 10 h after (±) warfarin dosing, and blood samples were drawn at 10, 24, and 48 h after (±) warfarin dosing.
Ten µL of blood was collected and the INR was measured using CoaguChek® XS System (Roche Diagnostics GmbH, Mannheim, Germany). All procedures followed the manufacturer’s protocol.

The conditions of series [2]: rats; for Change of AUC0–10 vs warfarin alone / Change of AUC0–t vs warfarin alone / Change of Cmax vs warfarin alone: CJ 5.0 g/kg 0.5 h before warfarin; for Effect of CJ on AUC0–t / Effect of CJ on Cmax: CJ given at 10 h after (±) warfarin; for Decrease of AUC0-t / Decrease of AUC0–10 / Decrease of Cmax: CJ ingestion at 0.5 h before (±) warfarin, vs warfarin alone; for AUC0–10 / AUC0–t / AUC48–96 / Cmax: mean ± S.E.
Protocol: In the pharmacokinetic interaction study, the rats were randomly divided into three groups (n = 7 in each group). The first group of rats was orally administered (±) warfarin (0.2 mg/kg) alone. The second and third groups of rats were administered CJ (5 g/kg) at 0.5 h prior to (±) warfarin and at 10 h after (±) warfarin dosing, respectively. The study was performed in a parallel design. Blood samples were drawn at 0.5, 1.0, 2.0, 6.0, 10, 24, 48, 72, and 96 h after (±) warfarin dosing and collected in a Vacutainer K2 EDTA tube (BD, New Jersey, USA). The blood samples were centrifuged to obtain plasma.
Briefly, 100 µL of plasma was mixed with 50 µL of 0.5N formic acid and then partitioned with 150 µL of ethyl acetate containing 10 µg/mL of caffeic acid as an internal standard.
The pharmacokinetic parameters were calculated by Phoenix WinNonlin® version 8.1 (Pharsight Corporation, St. Louis, MO, USA). The unpaired Student’s t-test and one-way ANOVA were used for statistical comparisons, taking p < 0.05 as significant.

The target of another series is CYP2C9 (Homo sapiens, UniProt P11712). The series can be described thus: Vivid CYP450 screening kit, CYP2C9 activity. The note with it: positive control, 10 μM, in blank serum.
CYP2C9, sequence (P11712 whole entry): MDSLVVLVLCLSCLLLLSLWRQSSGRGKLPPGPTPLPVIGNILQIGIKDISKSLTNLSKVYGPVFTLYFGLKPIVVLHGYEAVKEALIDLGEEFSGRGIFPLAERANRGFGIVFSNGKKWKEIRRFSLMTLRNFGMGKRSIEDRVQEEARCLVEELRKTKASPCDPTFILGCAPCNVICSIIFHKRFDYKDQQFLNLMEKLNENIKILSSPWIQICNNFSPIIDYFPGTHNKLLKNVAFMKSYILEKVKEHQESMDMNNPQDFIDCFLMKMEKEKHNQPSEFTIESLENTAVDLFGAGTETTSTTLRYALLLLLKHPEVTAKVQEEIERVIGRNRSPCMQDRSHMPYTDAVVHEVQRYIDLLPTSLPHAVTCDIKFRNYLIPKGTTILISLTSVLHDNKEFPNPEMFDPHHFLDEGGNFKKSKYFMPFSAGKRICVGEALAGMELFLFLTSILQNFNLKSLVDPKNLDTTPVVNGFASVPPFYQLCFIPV
The mark [3] stands for this setting: oral (±) warfarin 0.2 mg/kg + CJ 5.0 g/kg 0.5 h before warfarin.
[4] abbreviates: oral (±) warfarin 0.2 mg/kg + CJ 5.0 g/kg 10 h after warfarin.
Where [5] appears, read: oral (±) warfarin 0.2 mg/kg alone.

Protocol for CYP2C9: Vivid® CYP450 screening kits were used to evaluate the effects of CMs on the activities of CYP1A2, CYP2C9, and CYP3A4, individually [26, 27], and all the procedures were performed based on the standard protocols.

On to `CC(=O)CC(c1ccccc1)c1c(O)c2ccccc2oc1=O` (racemic) [(±) warfarin, (±) Warfarin sodium], for which the “INR value at 24 h” value in series [1] (control rats, oral (±) warfarin 0.2 mg/kg alone) came to 1.4 ± 0.1; in series [1] (rats, oral (±) warfarin 0.2 mg/kg + CJ 5 g/kg given 0.5 h prior to warfarin) it was 1.6 ± 0.1; in series [1] (rats, oral (±) warfarin 0.2 mg/kg + CJ 5 g/kg given 10 h later), 2.7 ± 0.5. Also, the “INR value at 24 h compared with control rats” value in series [1] (rats, CJ given 0.5 h prior to warfarin) is recorded as “not different from the control rats”. For the same compound, in series [1] (rats, CJ given 10 h after warfarin), the “Increase of INR value at 24 h vs control rats” value is on record as 93%.

Take `CC(=O)C[C@H](c1ccccc1)c1c(O)c2ccccc2oc1=O` [R-warfarin]: in series [2], the “Change of AUC0–10 vs warfarin alone” value is given as “(−54%)”, the “Change of AUC0–t vs warfarin alone” value is given as “(−52%)”, the “Change of Cmax vs warfarin alone” value is reported as “(−51%)” and the “Effect of CJ on AUC0–t” value is “not affected”. In series [2], the “Effect of CJ on Cmax” value is listed as “not affected”, the “Decrease of AUC0-t” value was 52%, the “Decrease of AUC0–10” value is reported as 54% and the “Decrease of Cmax” value is 51%. For the same compound, in series [2] (setting [3]), the “AUC0–10” value is reported as 1310.8 ± 169.6 ^b h⋅ng/mL, the “AUC0–t” value is given as 3007.6 ± 230.0 ^b h⋅ng/mL, the “AUC48–96” value came to 90.4 ± 58.2 h⋅ng/mL and the Cmax is recorded as 168.6 ± 17.2 ^b ng/mL. Besides, in series [2] (setting [4]), the “AUC0–10” value is recorded as 2943.7 ± 185.7 ^a h⋅ng/mL, the “AUC0–t” value is listed as 4739.3 ± 255.0 ^ab h⋅ng/mL and the Cmax is recorded as 402.8 ± 33.6 ^a ng/mL. In addition, in series [2] (setting [5]), the “AUC0–10” value was 2848.9 ± 395.0 ^a h⋅ng/mL, the “AUC0–t” value is 6209.2 ± 1253.4 ^a h⋅ng/mL, the “AUC48–96” value was 222.0 ± 125.3 h⋅ng/mL and the Cmax is listed as 341.1 ± 56.6 ^a ng/mL.

Regarding `CC(=O)C[C@@H](c1ccccc1)c1c(O)c2ccccc2oc1=O` [S-warfarin], in series [2], the “Change of AUC0–10 vs warfarin alone” value is listed as “(−52%)”, the “Change of AUC0–t vs warfarin alone” value is reported as “(−34%)”, the “Change of Cmax vs warfarin alone” value was “(−48%)” and the “Effect of CJ on AUC0–t” value is “not affected”. Moreover, in series [2], the “Effect of CJ on Cmax” value is recorded as “not affected”, the “Decrease of AUC0-t” value was 34%, the “Decrease of AUC0–10” value turned out to be 52% and the “Decrease of Cmax” value turned out to be 48%. In addition, in series [2] (setting [3]), the “AUC0–10” value is reported as 1561.8 ± 217.3 ^b h⋅ng/mL, the “AUC0–t” value is on record as 6286.7 ± 456.3 ^b h⋅ng/mL, the “AUC48–96” value is on record as 1041.3 ± 296.5 ^a h⋅ng/mL and the Cmax is on record as 216.3 ± 18.1 ^b ng/mL. Also, in series [2] (setting [4]), the “AUC0–10” value is 3846.6 ± 260.8 ^a h⋅ng/mL, the “AUC0–t” value is recorded as 11,555.0 ± 613.6 ^a h⋅ng/mL, the “AUC48–96” value is on record as 2547.9 ± 339.5 ^b h⋅ng/mL and the Cmax was 542.0 ± 59.4 ^a ng/mL. Besides, in series [2] (setting [5]), the “AUC0–10” value is 3267.7 ± 423.2 ^a h⋅ng/mL, the “AUC0–t” value is reported as 9459.1 ± 1659.6 ^a h⋅ng/mL, the “AUC48–96” value is given as 1126.6 ± 434.5 ^a h⋅ng/mL and the Cmax is given as 418.2 ± 69.4 ^a ng/mL.

Turning to `Nc1ccc(S(=O)(=O)Nc2ccnn2-c2ccccc2)cc1` [SFZ, sulfaphenazole], at CYP2C9, the “Decrease of CYP2C9 activity” value is 19%.
